The subject of assay [1] is 47× CAG RNA foci in U-2OS cells. The assay is described as follows: Live-cell reporter assay of RNA foci (MS2CP-YFP) in U-2OS cells. In kind it is cell-based. Here is the method:
(§1) A monoclonal U-20S cell line stably expressing Tet-On 3G transactivator protein (Clontech) and a tandem-dimeric MS2 hairpin binding protein tagged with enhanced YFP (MS2CP-YFP) was generated via sequential lentiviral infection and selection. This stable cell line was transduced with repeat-containing plasmids under doxycyclinetetracycline-inducible promoter. […] Cell lines were tested for mycoplasma contamination using a standard PCR kit (LookOut Mycoplasma PCR Detection Kit, Sigma) and verified routinely by live-cell DNA staining.
(§2) RNA expression was induced by adding 1,000 ng/mL doxycycline for 12-48 hours, or as indicated. Before imaging, the culture medium was replaced with DMEM with 25 mM HEPES pH 7.5 or FluoroBrite DMEM (Invitrogen) with serum and antibiotics as listed above. For long-term imaging (>2 hours), cells were placed in a live-cell imaging chamber supplemented with 5% CO2. Cells were imaged using a spinning disk confocal microscope (Nikon Ti-Eclipse equipped with a Yokogawa CSU-X spinning disk module) using a×100, 1.49 numerical aperture oil immersion objective and an air-cooled EM-CCD. For each experimental condition, at least 30 randomly chosen cells were imaged and analyzed. Each datum point in the bar graphs represents one cell. Data shown are representative of three or more independent replicates.
(§3) ATP depletion was achieved by rinsing cells twice in DMEM without glucose (Gibco), followed by incubation for 10 minutes in the ATP depletion medium (DMEM without glucose with 1% (v/v) dialyzed FBS (Gibco), 10 mM sodium azide and 6 mM 2-deoxy-D-glucose). Doxorubicin (stock, 10 mM in dimethylsulfoxide (DMSO)) was diluted to the desired concentration in cell culture medium and added to cells pre-induced with doxycycline for 24 hours. Cells were incubated with doxorubicin or an equivalent dilution of DMSO only as control, for 2 hours, and imaged as described above. Ammonium acetate (stock, 5 N) was diluted to 200 mM in cell culture medium. This intermediate dilution (2×) was added to cells pre-induced with doxycycline for 24 hours to achieve a final concentration of 100 mM of ammonium acetate. Cells were incubated in this medium for 10 minutes at 37° C. Normal cell culture medium was replaced after treatment, and cells were imaged immediately or 1 hour after medium replacement. For treatment with ASO, cells pre-induced with doxycycline for 48 hours were transfected with 100 nM final concentration of ASO using either Lipofectamine RNAiMAX (Invitrogen) or TranslT-Oligo Transfection Reagent (Mirius Bio) according to the manufacturers' recommended protocols. Similar results were obtained with both transfection reagents. Cells were imaged 12 hours after transfection.
A fluorescence-intensity and size-based threshold was used to identify RNA foci. Briefly, U-2OS cells expressing the RNA of interest together with MS2CP-YFP were imaged using a spinning disk confocal microscope, and 0.3 μm Z-stacks were acquired. […] The nuclei were manually segmented, and the mean YFP fluorescence intensity in the nucleus was manually determined. RNA foci were identified using the FIJI 3D Objects Counter plugin, with an intensity threshold as 1.6x the mean fluorescence intensity in the nucleus of the cell, and a size cut-off of more than 50 adjoining pixels (pixel size, 83 nm×83 nm). […] This method was used to determine the number, volume, surface area, and the fluorescence intensity of the foci.
(In general: Reporter assays use an easily measured gene product as a stand-in for the process of interest.)

The subject of assay [2] is 29× GGGGCC RNA foci in U-2OS cells. The assay is described as follows: Live-cell reporter assay of GGGGCC RNA foci in U-2OS cells. In kind it is cell-based. Here is the method: as §1
as §2, with “replicates. […]” for “replicates.”
A fluorescence-intensity and size-based threshold was used to identify RNA foci. […] The nuclei were manually segmented, and the mean YFP fluorescence intensity in the nucleus was manually determined. RNA foci were identified using the FIJI 3D Objects Counter plugin, with an intensity threshold as 1.6x the mean fluorescence intensity in the nucleus of the cell, and a size cut-off of more than 50 adjoining pixels (pixel size, 83 nm×83 nm). […] This method was used to determine the number, volume, surface area, and the fluorescence intensity of the foci.

Assay [3] relates to 47× CAG RNA foci in U-2OS cells. The assay is described as follows: RNA FISH with probe against MS2 hairpin loops in U-2OS cells. Type of assay: cell-based. Here is the method:
For RNA FISH in U-2OS cells, cells expressing the desired RNA (induced for 24 hours) were fixed with 2% paraformaldehyde for 10 minutes at room temperature and permeabilized by overnight incubation in 70% ethanol at 4° C. Alternatively, cells were fixed and permeabilized by incubation for 10 minutes in methanol with 10% (v/v) acetic acid. Similar results were obtained with both fixation protocols. Fixed and permeabilized cells were either used immediately, or stored in the permeabilization medium at −20° C. until needed. RNA was detected using Cy3-labelled DNA oligonucleotides designed against the MS2-hairpin sequence.

The subject of a further assay is 47× CAG RNA. Put plainly: In vitro RNA phase separation/gelation assay (fluorescence micrographs, index of dispersion). In kind it is biochemical. As to conditions: for 47× CAG RNA clustering in vitro: 100 mM ammonium acetate (NH4OAc); for 47× CAG RNA clustering / gel formation in vitro: doxorubicin added to pre-formed clusters (37° C., 1 hour) or pre-mixed before annealing. Here is the method: For phase separation/gelation assays, RNAs were diluted to concentrations of 0.5 ng/μL to 0.5 μg/μL in 10 mM Tris pH 7.0, 10 mM MgCl2, 25 mM NaCl buffer, unless indicated otherwise. Nuclease-free buffer stocks were purchased from Ambion. RNA was denatured at 95° C. for 3 minutes and cooled down at 1-4° C. per minute to 37° C. final temperature in a thermocycler and imaged immediately. Samples were visualized using a custom spinning disk confocal microscope (Nikon Ti-Eclipse equipped with a Yokogawa CSU-X spinning disk module) using a×100, 1.49 numerical aperture oil immersion objective and an air-cooled EM-CCD (electron multiplying charge-coupled device). The extent of phase separation/gelation was quantified by the index of dispersion (σ^2/μ) of fluorescence intensity per pixel (pixel size 83 nm×83 nm). Briefly, variance in the fluorescence intensity per image was determined, and normalized to the mean fluorescence intensity in the solution phase of the RNA. For dilute solution (<10% of imaging area occupied with clusters), this parameter reports the extent of inhomogeneity in the sample. At least 20 independent imaging areas (about 1,800 μm^2 each) were analyzed for each condition to achieve a representative measure across the sample. Each datum point in the bar graphs represents one imaging area. Data shown are representative of three or more independent replicates, across two or more independent RNA preparations.
For antisense DNA-mediated repression of RNA phase separation, 47×CAG RNA (200 ng/μL or 2.4 μM) was incubated with the ASO at 20 μM final concentration, followed by heat denaturation and annealing as described above. Doxorubicin was purchased from Cell Signaling Technology (catalogue number 5927). For in vitro experiments, doxorubicin was added to pre-formed RNA clusters, and samples were incubated at 37° C. for 1 hour. Alternatively, doxorubicin and RNA were pre-mixed at indicated concentrations before annealing. Similar results were obtained in both cases.

The test system of a further assay is nuclear speckles (SC-35). Type of assay: cell-based. The protocol: as §3, with “Similar results were obtained with both transfection reagents.” left out
Hybridization and wash buffers were purchased from Biosearch Technologies and used according to the manufacturer's protocol. For immunofluorescence detection of proteins, methanol-fixed cells were stained using antibodies against muscleblind-like-1 (MBNL1, Abcam, ab45899), hnRNP H (Abcam, ab10374), SC-35 (Abcam, ab11826), coilin (ab87913), fibrillarin (Abcam, ab5821), PML (Abcam, ab179466), and a corresponding Alexa Fluor 647-labelled secondary antibody (Invitrogen A-21236 or Invitrogen A-21244). Samples were co-stained with an anti-green fluorescent protein (GFP) booster antibody (GBA488, Bulldog Bio) to visualize RNA foci. After labelling, samples were mounted in Prolong Gold antifade medium (Thermo Scientific) and imaged using confocal microscopy as described above.

[4] abbreviates: 2.5 μM doxorubicin for 2 hours, listed as Doxorubicin.

The values that follow come from US20190218613A1, “METHODS OF DETECTING THE FORMATION OF CELLULAR CLUSTERS OF RNA” (The Regents of the University of California, priority 2017, published 2019).

“Also recorded” adds a separate entry of the source. Where two headings read alike, the source gives them in different places.

As to `CC(=O)O.N` [ammonium acetate], the “47× CAG RNA foci in cells” value in assay [1] is “disappearance of 47× CAG RNA foci within minutes; also recorded: disrupted”. Further, the “29× GGGGCC RNA foci in cells” value is on record as “disrupted” in assay [2] (NH4OAc, same cell before and 300 s after treatment); “disrupting 29× GGGGCC RNA foci” in assay [2] (NH4OAc, same cell before and 300 s after treatment, listed as NH4OAc). Further, in assay [3] (100 mM NH4OAc), the “47× CAG RNA foci by RNA FISH” value is listed as “disrupted”. In addition, the “47× CAG RNA clustering in vitro” value with 47× CAG RNA was “not observed”; with 47× CAG RNA (listed as NH4OAc), “prevents 47× CAG RNA clustering”. Also, the nuclear speckles entry in the assay on nuclear speckles (SC-35) was “disrupted”.
As for `CO[C@H]([C@H](O)CC(=O)[C@@H](C)[C@@H](O)CC[C@@H](C)[C@@H]1O[C@]2(CC[C@@H](C)[C@H](CC[C@H](C)C(C)=O)O2)CC[C@@H]1C)[C@H](OC(=O)C[C@@H](O)C1=C(C)C(=O)OC1=O)C(C)C` [tautomycin], in assay [1] (2 μM tautomycin for 4 hours), the “47× CAG RNA foci in cells” value is reported as “disrupts the 47× CAG RNA foci; also recorded: disrupted”. For the same compound, the nuclear speckles result in the assay on nuclear speckles (SC-35) (2 μM tautomycin for 4 hours) is “disruption of nuclear speckles; also recorded: disrupted”.
For the compound `[Cl-].[Na+]` [NaCl], the “clustering of 47× CAG RNA in presence of NaCl” value in the assay on 47× CAG RNA (NaCl) is “inhibited”.
Take `COc1cccc2c1C(=O)c1c(O)c3c(c(O)c1C2=O)C[C@@](O)(C(=O)CO)C[C@@H]3O[C@H]1C[C@H](N)[C@H](O)[C@H](C)O1` [doxorubicin]: the “47× CAG RNA foci in cells” value in assay [1] (2.5 μM doxorubicin for 2 hours) was “specifically abrogated the 47× CAG RNA foci”; in assay [1] (setting [4]), “potently dissolved the 47× CAG nuclear foci in cells”. Moreover, the “concentration of doxorubicin required to disrupt RNA foci in cells” value in assay [1] (U-2OS cells, 47× CAG) stood at 2.5 µM. The “29× GGGGCC RNA foci in cells” value in assay [2] (doxorubicin) was “disrupting 29× GGGGCC RNA foci; also recorded: disrupted”. Further, the “47× CAG RNA foci by RNA FISH” value in assay [3] (2.5 μM doxorubicin) was “disrupted”. In addition, the “47× CAG RNA clustering / gel formation in vitro” value in the assay with 47× CAG RNA is recorded as “prevents 47× CAG RNA clustering”; with 47× CAG RNA (listed as Doxorubicin), “blocked the formation of CAG RNA gels in vitro; also recorded: disrupted 47× CAG RNA clustering in vitro in a dose-dependent manner”. Also, in the assay with 47× CAG RNA (in vitro), the “concentration of doxorubicin needed to disrupt RNA clusters in the in vitro experiments” value is “about 1 mM”. Moreover, the results for the nuclear speckles result in the assay with nuclear speckles (SC-35) (2.5 μM doxorubicin for 2 hours) and with nuclear speckles (SC-35) (setting [4]) were “not disrupted” and “without disrupting nuclear speckles”, respectively.
